Read-outs that look alike come from different tables or passages of the source.
What was measured:
S. schottmuelleri UC 126 = experiment: standard microplate test in BHI Agar (MIC), S. schottmuelleri UC 126; type: cell-based; details: 20 h, BHI agar, 37°, first table, read-out: Minimum Inhibitory Concentration
Description: (§1) Compounds were also tested in a standard microplate test in Brain Heart Infusion (BHI) Agar, at a concentration of 1 mg/ml. Incubation is at 37° and end points are read at 20 hours. Brain Heart Infusion Agar (supplied by Difco Laboratories, Detroit, Michigan, U.S.A.) has the following composition:
(§2) Compounds (7β), (7α) and (9) were tested again along with compounds (11) and (14β) against a neamine control using the same conditions as given above.

B. subtilis = experiment: standard disc plate assay, 12.5 mm paper discs (zone of inhibition), B. subtilis; type: cell-based, Bacillus subtilis
Description: (§3) The novel intermediates, disclosed herein, are useful to make novel aminoglycoside antibiotics. These novel aminoglycoside antibiotics are antibacterially active, and, thus, they can be used in various environments to eradicate or control sensitive bacteria. Following are in vitro antibacterial test results for representative compounds of the subject invention. The results were obtained with a standard disc plate assay using 12.5 mm paper discs.

P. morgani UC 3186 = experiment: standard microplate test in BHI Agar (MIC), P. morgani UC 3186; type: cell-based; details: 20 h, retest table, group (9), (11), (7α), neamine control
Description: as §1, §2

S. flexneri UC 143 = experiment: standard microplate test in BHI Agar (MIC), S. flexneri UC 143; type: cell-based; details: Shigella flexneri, UC143, 20 h, retest table, group (9), (11), (7α), neamine control, read-out: Minimum Inhibitory Concentration
Description: as §1, §2

S. aureus UC 570 = experiment: standard microplate test in BHI Agar (MIC), S. aureus UC 570; type: cell-based; details: Staphylococcus aureus, UC570, 20 h, 37°, first table, read-out: Minimum Inhibitory Concentration
Description: as §1, with “composition: […]” for “composition:”

D. pneumoniae UC 41 = experiment: standard microplate test in BHI Agar (MIC), D. pneumoniae UC 41; type: cell-based; details: Streptococcus pneumoniae, UC41, 20 h
Description: as §1, §2

P. mirabilis A-63 = experiment: standard microplate test in BHI Agar (MIC), P. mirabilis A-63; type: cell-based; details: Proteus mirabilis, A63, 20 h; P. mirabilis A-63; retest table, group (9), (11), (7α), neamine control; read-out: Minimum Inhibitory Concentration
Description: as §1, §2

P. rettgeri UC 339 = experiment: standard microplate test in BHI Agar (MIC), P. rettgeri UC 339; type: cell-based; details: Providencia rettgeri, UC339, 20 h; P. rettgeri UC 339; retest table, group (9), (11), (7α), neamine control; read-out: Minimum Inhibitory Concentration
Description: as §1, §2

P. vulgaris UC 93 = experiment: standard microplate test in BHI Agar (MIC), P. vulgaris UC 93; type: cell-based; details: Proteus vulgaris, UC93, 20 h
Description: as §1, §2

S. hemolyticus UC 152 = experiment: standard microplate test in BHI Agar (MIC), S. hemolyticus UC 152; type: cell-based, Streptococcus hemolyticus; details: Streptococcus pyogenes, UC152, 20 h
Description: as §1, §2

B. cereus = experiment: standard disc plate assay, 12.5 mm paper discs (zone of inhibition), B. cereus; type: cell-based, Bacillus cereus; details: for zone of inhibition at 10000 µg/mL: 10 mg/ml; for active against Bacillus cereus: conclusion in words from the above results
Description: as §3

S. marcescens UC 131 = experiment: standard microplate test in BHI Agar (MIC), S. marcescens UC 131; type: cell-based; details: Serratia marcescens, UC131, 20 h; S. marcescens UC 131; retest table, group (9), (11), (7α), neamine control; read-out: Minimum Inhibitory Concentration
Description: as §1, §2

S. aureus UC 746 = experiment: standard microplate test in BHI Agar (MIC), S. aureus UC 746; type: cell-based; details: Staphylococcus aureus, UC746, 37°, 20 h, first table, read-out: Minimum Inhibitory Concentration
Description: as §1, with “composition: […]” for “composition:”

K. pneumoniae UC 58 = experiment: standard microplate test in BHI Agar (MIC), K. pneumoniae UC 58; type: cell-based; details: Klebsiella pneumoniae, UC58, 20 h
Description: as §1, §2

S. aureus UC 76 = experiment: standard microplate test in BHI Agar (MIC), S. aureus UC 76; type: cell-based, Staphylococcus aureus; details: Staphylococcus aureus, UC76, 20 h
Description: as §1, §2

S. typhi TG-3 = experiment: standard microplate test in BHI Agar (MIC), S. typhi TG-3; type: cell-based; details: Salmonella enterica, 20 h, read-out: Minimum Inhibitory Concentration
Description: as §1, §2

St. faecalis UC 694 = experiment: standard microplate test in BHI Agar (MIC), St. faecalis UC 694; type: cell-based; details: Enterococcus faecalis, UC694, 20 h, read-out: Minimum Inhibitory Concentration
Description: as §1, §2

E. coli UC 45 = experiment: standard microplate test in BHI Agar (MIC), E. coli UC 45; type: cell-based; details: Escherichia coli, UC45, 20 h
Description: as §1, §2

Ps. aeruginosa UC 95 = experiment: standard microplate test in BHI Agar (MIC), Ps. aeruginosa UC 95; type: cell-based; details: Pseudomonas aeruginosa, UC95, 20 h, Ps. aeruginosa UC 95, read-out: Minimum Inhibitory Concentration
Description: as §1, §2

[1] = S. hemolyticus UC 152, retest table, group (9), (11), (7α), neamine control, read-out: Minimum Inhibitory Concentration
[2] = K. pneumoniae UC 58, retest table, group (9), (11), (7α), neamine control, read-out: Minimum Inhibitory Concentration
[3] = S. faecalis UC 694, retest table, group (9), (11), (7α), neamine control
[4] = retest table, group (9), (11), (7α), neamine control

NC[C@H]1O[C@H](O[C@H]2[C@H](O)[C@@H](O[C@H]3O[C@H](CO)[C@@H](O)[C@H]3O)[C@H](N)C[C@@H]2N)[C@H](N)[C@@H](O)[C@@H]1O [(7α), 6-O-(α-D-Ribofuranosyl)neamine]
25 mm: zone of inhibition at 5000 µg/mL (B. cereus; Bacillus cereus, B. cereus, 5 mg/ml)
7.8 µg/mL: MIC (S. hemolyticus UC 152; [1]) | MIC (K. pneumoniae UC 58; [2])
62.5 µg/mL: MIC (K. pneumoniae UC 58; read-out: Minimum Inhibitory Concentration, K. pneumoniae UC 58, BHI agar, 37°, 20 h, first table) | MIC (S. aureus UC 76; read-out: Minimum Inhibitory Concentration, S. aureus UC 76, retest table, group (9), (11), (7α), neamine control) | MIC (S. typhi TG-3) | MIC (E. coli UC 45; read-out: Minimum Inhibitory Concentration, E. coli UC 45, retest table, group (9), (11), (7α), neamine control)
250 µg/mL: MIC (S. marcescens UC 131)
125 µg/mL: MIC (P. morgani UC 3186; read-out: Minimum Inhibitory Concentration, P. morgani UC 3186) | MIC (S. flexneri UC 143) | MIC (D. pneumoniae UC 41; read-out: Minimum Inhibitory Concentration, D. pneumoniae UC 41, retest table, group (9), (11), (7α), neamine control) | MIC (P. vulgaris UC 93; read-out: Minimum Inhibitory Concentration, P. vulgaris UC 93, retest table, group (9), (11), (7α), neamine control)
32 mm: zone of inhibition at 5000 µg/mL (B. subtilis; Bacillus subtilis, B. subtilis, 5 mg/ml) | zone of inhibition at 10000 µg/mL (B. cereus; Bacillus cereus, B. cereus)
1000 µg/mL: MIC (P. rettgeri UC 339) | MIC (P. vulgaris UC 93; P. vulgaris UC 93, BHI agar, 37°, 20 h, first table, read-out: Minimum Inhibitory Concentration) | MIC (S. aureus UC 746) | MIC (S. aureus UC 76; S. aureus 284 UC 76, BHI agar, 37°, 20 h, first table, read-out: Minimum Inhibitory Concentration) | MIC (St. faecalis UC 694; [3]) | MIC (Ps. aeruginosa UC 95; [4])
> 1000 µg/mL: MIC (D. pneumoniae UC 41; D. pneumoniae UC 41, BHI agar, 37°, 20 h, first table, read-out: Minimum Inhibitory Concentration) | MIC (St. faecalis UC 694; St. faecalis UC 694, BHI agar, 37°, 20 h, first table) | MIC (Ps. aeruginosa UC 95; BHI agar, 37°, 20 h, first table)
active: active against Bacillus subtilis (B. subtilis; conclusion in words from the above results) | active against Bacillus cereus (B. cereus)
500 µg/mL: MIC (S. schottmuelleri UC 126) | MIC (S. aureus UC 570) | MIC (P. mirabilis A-63) | MIC (E. coli UC 45; E. coli UC 45, BHI agar, 37°, 20 h, first table, read-out: Minimum Inhibitory Concentration)
34 mm: zone of inhibition at 10000 µg/mL (B. subtilis; Bacillus subtilis, B. subtilis, 10 mg/ml)
31.2 µg/mL: MIC (S. hemolyticus UC 152; read-out: Minimum Inhibitory Concentration, S. hemolyticus UC 152, BHI agar, 37°, 20 h, first table)

NC[C@H]1O[C@H](O[C@H]2[C@H](O)[C@@H](O)[C@H](N)C[C@@H]2N)[C@H](N)[C@@H](O[C@@H]2O[C@H](CO)[C@@H](O)[C@H](O)[C@H]2O)[C@@H]1O [(11), 3'-O-(β-D-glucopyranosyl)neamine]
active: active against Bacillus cereus (B. cereus)
16 mm: zone of inhibition at 10000 µg/mL (B. cereus; Bacillus cereus, B. cereus)
1000 µg/mL: MIC (P. morgani UC 3186; P. morgani UC 3186, read-out: Minimum Inhibitory Concentration) | MIC (S. flexneri UC 143) | MIC (D. pneumoniae UC 41; D. pneumoniae UC 41, retest table, group (9), (11), (7α), neamine control, read-out: Minimum Inhibitory Concentration) | MIC (P. mirabilis A-63) | MIC (P. rettgeri UC 339) | MIC (P. vulgaris UC 93; P. vulgaris UC 93, retest table, group (9), (11), (7α), neamine control, read-out: Minimum Inhibitory Concentration) | MIC (S. hemolyticus UC 152; [1]) | MIC (S. marcescens UC 131) | MIC (K. pneumoniae UC 58; [2]) | MIC (S. aureus UC 76; S. aureus UC 76, retest table, group (9), (11), (7α), neamine control, read-out: Minimum Inhibitory Concentration) | MIC (S. typhi TG-3) | MIC (St. faecalis UC 694; [3]) | MIC (E. coli UC 45; E. coli UC 45, retest table, group (9), (11), (7α), neamine control, read-out: Minimum Inhibitory Concentration) | MIC (Ps. aeruginosa UC 95; [4])

— patent US3984393A, “Aminoglycoside antibiotics” (The Upjohn Company, priority 1975, dated 1976)
